Data set [1] has as its system human colon cancer cell line HCT-116. In words: In vitro growth inhibition (CellTiter-Glo), HCT-116. It is filed as cell-based. The note with it: HCT 116 TP53(-/-), read-out: GI50 (concentration of drug that inhibited 50% of cell growth), 72 h exposure. On the procedure: Cells were grown in an appropriate medium for the cell line of interest; 96 well plates of each cell line were seeded with 5000 cells per well and left overnight. Drug exposed cells were incubated at 37 °C for 72 h. At the end of the 72 h exposure period, plates were removed for the CellTiter-Glo® assay. Luminescence was recorded on a Synergy 4.0. Assays were performed in triplicate.

In the next data set the test system is total DNMT. The experiment in a line: Total DNMT inhibition, colorimetric assay in HCT-116 cells. The note with it: 24 h. It is filed as cell-based, human. On the procedure:
Total DNMT activity was measured in the colon cancer cell line HCT-116. The assay was performed using the EpiQuick^TM DNA Methyltransferase Activity/Inhibition Assay Kit (Epigentek, Brooklyn, NY, USA). […] Assays were performed three times in triplicate.

A further data set deals with T1, RNR (Homo sapiens, UniProt P23921).
T1 construct: endogenous in cells; host or cells: HeLa
T1 sequence (P23921 1-792): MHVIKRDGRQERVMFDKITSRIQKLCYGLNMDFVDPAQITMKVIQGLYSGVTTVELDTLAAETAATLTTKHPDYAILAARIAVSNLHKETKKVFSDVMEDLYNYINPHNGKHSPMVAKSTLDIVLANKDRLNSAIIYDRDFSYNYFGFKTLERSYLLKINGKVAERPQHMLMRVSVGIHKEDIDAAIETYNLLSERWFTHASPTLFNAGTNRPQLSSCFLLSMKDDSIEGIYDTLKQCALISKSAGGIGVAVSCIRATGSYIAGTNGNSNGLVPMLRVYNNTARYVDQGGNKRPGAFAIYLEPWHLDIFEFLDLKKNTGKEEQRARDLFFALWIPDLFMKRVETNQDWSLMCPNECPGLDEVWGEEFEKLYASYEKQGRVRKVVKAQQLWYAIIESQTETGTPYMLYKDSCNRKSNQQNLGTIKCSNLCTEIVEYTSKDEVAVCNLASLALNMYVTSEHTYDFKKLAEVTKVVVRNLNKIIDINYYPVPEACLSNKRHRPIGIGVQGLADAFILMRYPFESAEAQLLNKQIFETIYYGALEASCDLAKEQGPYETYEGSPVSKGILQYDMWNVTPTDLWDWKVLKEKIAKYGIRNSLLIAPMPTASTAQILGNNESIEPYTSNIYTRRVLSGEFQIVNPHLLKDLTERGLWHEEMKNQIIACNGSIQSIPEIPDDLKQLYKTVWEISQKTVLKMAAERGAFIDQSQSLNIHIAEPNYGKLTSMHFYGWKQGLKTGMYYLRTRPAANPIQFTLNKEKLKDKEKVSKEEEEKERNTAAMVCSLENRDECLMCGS
T1 sequence (P31350 1-389 partner): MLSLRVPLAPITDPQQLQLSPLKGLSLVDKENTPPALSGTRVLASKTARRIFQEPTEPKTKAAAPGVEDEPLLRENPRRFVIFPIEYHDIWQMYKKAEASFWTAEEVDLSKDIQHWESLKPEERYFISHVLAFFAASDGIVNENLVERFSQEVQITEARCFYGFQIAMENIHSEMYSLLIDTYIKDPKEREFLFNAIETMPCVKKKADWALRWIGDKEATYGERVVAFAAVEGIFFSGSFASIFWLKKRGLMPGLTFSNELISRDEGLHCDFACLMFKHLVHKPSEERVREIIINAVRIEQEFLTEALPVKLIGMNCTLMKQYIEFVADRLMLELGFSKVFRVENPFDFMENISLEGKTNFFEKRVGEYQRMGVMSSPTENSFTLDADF
The experiment in a line: RNR inhibition whole cell assay (HPLC of nucleotides from HeLa cell extracts). In kind it is cell-based. The note with it: 50 µM, 16 h. From the text:
Gemcitabine was used as a positive control.
The method used to extract and quantitate nucleotides followed previously reported procedures.

The nature of the next data set: in vivo. The note with it: mouse, iv, 5 mg/kg.
For data set [2] the following is noted: reported for decitabine; cited from earlier work.

The source of these data is publication PMC5620609 (Pharmaceuticals, 2017).

For orientation: half-life means the time in which the quantity being followed falls by half.

SMILES strings stand for the structures.

Procedure for in vivo: Three mice were placed in a dose group on the first day of treatment (Day 1). […] Animals were observed daily for mortality and moribundity. Body weights were measured daily starting on day 1.

`Nc1ncn([C@@H]2O[C@H](CO)[C@@H](O)[C@H]2O)c(=O)n1` [5-azacytidine]: the GI50 in data set [1] was found to be 620 nM. The “inhibition of total DNMT” value amounted to 19.2% in the data set with total DNMT (1 µM, mean of 3 experiments) and 48.6% in the data set on total DNMT (10 µM).
With `Nc1ccn([C@@H]2O[C@H](CO)[C@@H](O)C2(F)F)c(=O)n1` [Gemcitabine, gemcitabine, reference compound], on RNR, the ADP concentration is 15,639, the ATP concentration is on record as 26,296, the CTP concentration is listed as 1297 and the GTP concentration was found to be 2036. In addition, at RNR, the UTP concentration is given as 4801; the “dATP, peak area” value was found to be 0 AU; the “dGDP, peak area” value is listed as 7.95 AU; the “dTDP, peak area” value was determined as 43.4 AU. In addition, on RNR, the “dUTP, peak area” value is recorded as 5.3 AU.
On to `Nc1ncn([C@H]2C[C@H](O)[C@@H](CO)O2)c(=O)n1` [decitabine, 5-aza-2′-deoxycytidine], for which the MTD at 3 weeks in the data set “in vivo” is less than 5 mg/kg. The half-life in data set [2] is 30 min.
